In the supplement of paper PMC10307832:

Tests used:
Assay in all cases: relative viability (nuclei count vs DMSO), 5 days (fraction); higher = more cells survive
VX-11e + Vorinostat = compound: CC1=CN=C(N=C1C2=CNC(=C2)C(=O)N[C@H](CO)C3=CC(=CC=C3)Cl)NC4=C(C=C(C=C4)F)Cl [VX-11e] + O=C(CCCCCCC(=O)Nc1ccccc1)NO [Vorinostat] (partner 1 µM)
Summary of the method: (§1)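 Five library-drug doses in √10 steps were combined with a fixed anchor-drug dose, or a single drug was given alone, by pin tool to lung cancer cell lines in 1536-well plates the day after seeding. Nuclei were stained and counted after 5 days. Relative viability is the nuclei count in treated wells over that in vehicle wells, taken as the median of duplicate plates.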

VX-11e + Dasatinib = compound: CC1=CN=C(N=C1C2=CNC(=C2)C(=O)N[C@H](CO)C3=CC(=CC=C3)Cl)NC4=C(C=C(C=C4)F)Cl [VX-11e] + Cc1nc(Nc2ncc(C(=O)Nc3c(C)cccc3Cl)s2)cc(N2CCN(CCO)CC2)n1 [Dasatinib] (partner 0.075 µM)
Summary of the method: as §1

VX-11e + Pictilisib = compound: CC1=CN=C(N=C1C2=CNC(=C2)C(=O)N[C@H](CO)C3=CC(=CC=C3)Cl)NC4=C(C=C(C=C4)F)Cl [VX-11e] + CS(=O)(=O)N1CCN(Cc2cc3nc(-c4cccc5[nH]ncc45)nc(N4CCOCC4)c3s2)CC1 [Pictilisib] (partner 1 µM)
Summary of the method: as §1

VX-11e + Crizotinib = compound: CC1=CN=C(N=C1C2=CNC(=C2)C(=O)N[C@H](CO)C3=CC(=CC=C3)Cl)NC4=C(C=C(C=C4)F)Cl [VX-11e] + C[C@@H](Oc1cc(-c2cnn(C3CCNCC3)c2)cnc1N)c1c(Cl)ccc(F)c1Cl [Crizotinib] (partner 1 µM)
Summary of the method: as §1

| Cell Line | relative viability (VX-11e + Vorinostat; first compound 0.04 µM) | relative viability (VX-11e + Vorinostat; first compound 0.1265 µM) | relative viability (VX-11e + Vorinostat; first compound 0.4 µM) | relative viability (VX-11e + Vorinostat; first compound 1.265 µM) | relative viability (VX-11e + Vorinostat; first compound 4 µM) | relative viability (VX-11e + Dasatinib; first compound 0.04 µM) | relative viability (VX-11e + Dasatinib; first compound 0.1265 µM) | relative viability (VX-11e + Dasatinib; first compound 0.4 µM) | relative viability (VX-11e + Dasatinib; first compound 1.265 µM) | relative viability (VX-11e + Dasatinib; first compound 4 µM) | relative viability (VX-11e + Pictilisib; first compound 0.04 µM) | relative viability (VX-11e + Pictilisib; first compound 0.1265 µM) | relative viability (VX-11e + Pictilisib; first compound 0.4 µM) | relative viability (VX-11e + Pictilisib; first compound 1.265 µM) | relative viability (VX-11e + Pictilisib; first compound 4 µM) | relative viability (VX-11e + Crizotinib; first compound 0.04 µM) | relative viability (VX-11e + Crizotinib; first compound 0.1265 µM) | relative viability (VX-11e + Crizotinib; first compound 0.4 µM) | relative viability (VX-11e + Crizotinib; first compound 1.265 µM) | relative viability (VX-11e + Crizotinib; first compound 4 µM) |
| --- | --- | --- | --- | --- | --- | --- | --- | --- | --- | --- | --- | --- | --- | --- | --- | --- | --- | --- | --- | --- |
| 201T | 0.975 | 0.988 | 0.885 | 0.65 | 0.855 | 0.58 | 0.536 | 0.486 | 0.502 | 0.495 | 0.599 | 0.658 | 0.608 | 0.542 | 0.647 | 1.02 | 0.961 | 1.02 | 0.97 | 0.948 |
| A549 | – | – | – | – | – | – | – | – | – | – | 0.481 | 0.475 | 0.316 | 0.0889 | 0.0408 | 0.826 | 0.786 | 0.601 | 0.207 | 0.0915 |
| A-427 | 0.868 | 0.928 | 1.01 | 0.89 | 0.504 | 0.751 | 0.574 | 0.488 | 0.232 | 0.114 | 0.454 | 0.468 | 0.535 | 0.422 | 0.154 | 0.92 | 0.721 | 0.55 | 0.688 | 0.311 |
| ABC-1 | 0.934 | – | 1.22 | 0.986 | 1.15 | 0.72 | 0.551 | 0.468 | 0.561 | 0.497 | 0.615 | 0.539 | 0.809 | 0.518 | 0.466 | 1.24 | 1.07 | 1.06 | 0.892 | 1.09 |
| BEN | 0.572 | 0.564 | 0.55 | 0.525 | 0.504 | – | 0.277 | 0.399 | 0.236 | 0.252 | 0.465 | 0.533 | 0.628 | 0.392 | 0.468 | 0.953 | 0.723 | 0.941 | 0.575 | 0.828 |
| CAL-12T | 0.634 | 0.724 | 0.649 | 0.84 | 0.285 | 0.466 | 0.34 | 0.249 | 0.243 | 0.111 | – | – | 0.393 | 0.524 | 0.295 | 0.697 | 0.632 | 0.633 | 0.543 | 0.394 |
| COR-L23 | 0.31 | 0.436 | 0.592 | 0.41 | 0.262 | 0.486 | 0.453 | 0.442 | 0.355 | 0.208 | 0.83 | 0.72 | 0.52 | 0.382 | 0.184 | 0.708 | 0.627 | 0.646 | 0.497 | 0.211 |
| COR-L 105 | 0.756 | 0.857 | 0.731 | 0.741 | 0.418 | 0.316 | 0.344 | 0.33 | 0.198 | 0.229 | 0.341 | 0.41 | 0.362 | 0.29 | 0.322 | 0.779 | 0.705 | 0.547 | 0.369 | 0.292 |
| ChaGo-K-1 | 0.754 | 0.699 | 0.717 | 0.656 | 0.636 | 0.516 | 0.587 | 0.584 | 0.654 | 0.557 | 0.351 | – | 0.587 | 0.567 | 0.569 | 1.19 | – | 1.23 | 1.01 | 1.12 |
| EKVX | 0.751 | 0.687 | 0.718 | 0.728 | 0.382 | 0.687 | 0.482 | 0.401 | 0.489 | 0.247 | 0.447 | 0.545 | 0.461 | 0.404 | 0.19 | 1.07 | 0.944 | 0.879 | 0.764 | 0.617 |
| EMC-BAC-2 | 0.404 | 0.45 | 1.07 | 0.511 | 0.315 | 0.303 | 0.291 | 0.437 | 0.509 | 0.407 | 0.468 | 0.488 | 0.516 | 0.432 | 0.337 | 0.808 | 0.708 | 0.739 | 0.618 | 0.671 |
| EPLC-272H | 0.311 | 0.381 | 0.477 | 0.23 | 0.275 | 0.328 | 0.269 | – | 0.334 | 0.2 | 0.301 | 0.299 | 0.266 | 0.213 | 0.233 | 0.711 | 0.877 | 0.85 | 0.676 | 0.627 |
| H3255 | 0.828 | 0.765 | 0.776 | 0.79 | 0.708 | 0.37 | 0.38 | 0.538 | 0.281 | 0.347 | 0.476 | 0.428 | 0.482 | 0.596 | 0.316 | 0.898 | 0.716 | 0.608 | 0.877 | 0.887 |
| HARA | 0.618 | 0.455 | 0.535 | 0.392 | 0.257 | 0.306 | 0.2 | 0.273 | 0.248 | 0.157 | 0.0961 | 0.425 | 0.322 | 0.341 | 0.188 | 1.05 | 0.792 | 1.04 | 0.833 | 0.813 |
| HCC-15 | 0.96 | 0.752 | – | 0.534 | 0.26 | 0.66 | 0.52 | – | 0.243 | 0.148 | 0.619 | 0.682 | 0.32 | 0.334 | 0.168 | 0.904 | 0.747 | 0.64 | 0.449 | 0.264 |
| HCC-44 | 1.15 | 1.15 | 1.12 | 1.03 | 0.831 | – | – | – | – | – | 0.539 | 0.552 | 0.628 | 0.359 | 0.163 | 0.879 | 0.809 | 0.833 | 0.753 | 0.453 |
| HCC-78 | 0.479 | 0.42 | 0.358 | 0.482 | 0.405 | – | 0.412 | 0.411 | 0.382 | 0.44 | 0.23 | 0.185 | 0.31 | 0.189 | 0.224 | 0.351 | 0.307 | 0.353 | 0.285 | 0.285 |
